Columns and labels:
[1] = target: T1, kappa opioid receptor (KOR) (Homo sapiens, UniProt P41145); experiment: OPRKappa 1 Tango B-Arrestin Assay, antagonist mode (Tango OPRK1-bla U2OS cells, U50488 EC80 challenge); format: cell-based; settings: for Selectivity (MOR/KOR): Kappa selectivity, MOR IC50 / KOR IC50; for IC50: antagonist mode, Tango OPRK1-bla U2OS cells, 6 nM U50488 challenge
T1 construct: host or cells: U2OS (Tango OPRK1-bla U2OS)
In short: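 Tango OPRK1-bla U2OS cells, β-arrestin recruitment read as β-lactamase FRET (CCF4-AM, 460/590 nm emission). Compounds, 10-point 1:3 series from nominal 10 µM in quadruplicate, preincubated 30 min at 37 °C, then challenged with U50488 at 6 nM final (EC80) for 4 h; percent inhibition from median ratio.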

mu opioid receptor (MOR) = target: T2, mu opioid receptor (MOR) (Homo sapiens, UniProt P35372); experiment: OPRMu1 Discover X β-arrestin Assay, antagonist mode (U2OS cells, DAMGO EC80 challenge); format: cell-based
T2 construct: host or cells: U2OS (Discover X OPRMu1-U2OS, PathHunter)
In short: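 PathHunter U2OS cells with β-gal fragment-complementation readout for β-arrestin recruitment to OPRMu1. Cells were preincubated with compound (10-point, 1:3 series from nominal 10 micromolar) for 30 min at 37 °C, then challenged with 303 nM DAMGO (EC80) for 3 h. Luminescence gave percent inhibition.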

T2 sequence (P35372 whole entry): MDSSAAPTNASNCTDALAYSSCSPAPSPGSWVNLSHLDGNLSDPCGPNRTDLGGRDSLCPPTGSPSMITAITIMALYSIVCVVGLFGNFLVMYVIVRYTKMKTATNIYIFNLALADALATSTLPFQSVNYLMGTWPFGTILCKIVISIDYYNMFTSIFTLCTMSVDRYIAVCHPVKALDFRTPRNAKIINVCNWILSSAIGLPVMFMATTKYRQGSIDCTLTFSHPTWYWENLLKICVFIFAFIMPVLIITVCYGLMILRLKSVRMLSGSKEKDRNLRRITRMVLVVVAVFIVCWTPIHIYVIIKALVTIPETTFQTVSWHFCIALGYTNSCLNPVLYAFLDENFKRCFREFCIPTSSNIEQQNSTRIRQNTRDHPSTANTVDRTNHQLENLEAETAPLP
T1 sequence (P41145 whole entry): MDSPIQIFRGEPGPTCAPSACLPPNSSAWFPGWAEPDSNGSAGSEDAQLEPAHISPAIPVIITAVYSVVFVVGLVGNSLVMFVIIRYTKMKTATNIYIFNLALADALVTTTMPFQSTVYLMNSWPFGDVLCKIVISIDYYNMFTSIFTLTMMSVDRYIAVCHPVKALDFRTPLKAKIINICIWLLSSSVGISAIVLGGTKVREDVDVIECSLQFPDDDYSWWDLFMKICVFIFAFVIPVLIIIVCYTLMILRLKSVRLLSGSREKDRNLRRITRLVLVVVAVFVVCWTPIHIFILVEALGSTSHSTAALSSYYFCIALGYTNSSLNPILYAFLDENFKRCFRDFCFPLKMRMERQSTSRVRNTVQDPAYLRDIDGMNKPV

Row | Compound | IC50 [1] [nM] | IC50 (mu opioid receptor (MOR)) [nM] | Selectivity (MOR/KOR) [1]
1 | CCc1cc(-c2ccnn2C)c2nc(N3CCN(CC4CC(F)(F)C4)C[C@H]3C)c(-c3ccn(C)n3)c(C)c2c1 [Compound 61] | ≥ 100 | > 1000 | ++ (between 10- and 100-fold selectivity)
2 | CCc1cc(C#N)c2nc(N3CCC(NC4CC(F)(F)C4)CC3)c(-c3ccn(C)n3)c(C)c2c1 [Compound 79] | 1 to 10 | > 1000 | +++ (between 100- to 1000-fold selective)
3 | CCc1cc(F)c2nc(N3CC[C@H](N[C@@H]4CCCOC4)[C@@H](C)C3)c(-c3ccn(C)n3)c(C)c2c1 [Compound 112] | 1 to 10 | > 1000 | +++ (between 100- to 1000-fold selective)
4 | CCc1cc(-c2ccn(C)n2)c2nc(N3CCC(N[C@@H]4CCOC4)CC3)c(-c3ccn(C)n3)c(C)c2c1 [Compound 100] | < 1 | > 1000 | ++++ (more than 1000-fold selectivity over MOR)
5 | CCc1cc(-c2ccn(C)n2)c2nc(N3CCC(N[C@H]4CCOC4)CC3)c(-c3ccn(C)n3)c(C)c2c1 [Compound 99] | < 1 | > 1000 | ++++ (more than 1000-fold selectivity over MOR)
6 | CCc1cc(-c2ccnn2C)c2nc(N3CCC(N[C@H]4COC[C@H]4F)CC3)c(-c3ccn(C)n3)c(C)c2c1 [Compound 89] | 1 to 10 | > 1000 | ++ (between 10- and 100-fold selectivity)
7 | CCc1cc(-c2ccnn2C)c2nc(N3CCC(N[C@H]4CCOC[C@@H]4F)CC3)c(-c3ccn(C)n3)c(C)c2c1 [Compound 9, 1-(6-ethyl-4-methyl-3-(1-methyl-1H-pyrazol-3-yl)-8-(1-methyl-1H-pyrazol-5-yl)quinolin-2-yl)-N-((3R,4S)-3-fluorotetrahydro-2H-pyran-4-yl)piperidin-4-amine] | < 1 | 100 to 1000 | +++ (between 100- to 1000-fold selective)

More lines, main results first:

Row | IC50 [1] [nM] | IC50 (mu opioid receptor (MOR)) [nM] | Compound | Selectivity (MOR/KOR) [1]
8 | 1 to 10 | > 1000 | CCc1cc(F)c2nc(N3CC[C@@H](N[C@@H]4CCOC4)[C@H](F)C3)c(-c3ccn(C)n3)c(C)c2c1 [Compound 196, (3R,4R)-1-(6-ethyl-8-fluoro-4-methyl-3-(1-methyl-1H-pyrazol-3-yl)quinolin-2-yl)-3-fluoro-N—((R)-tetrahydrofuran-3-yl)piperidin-4-amine] | +++ (between 100- to 1000-fold selective)
9 | < 1 | > 1000 | CCc1cc(F)c2nc(N3CC[C@@H](N[C@@H]4CCCOC4)C[C@@H]3C)c(-c3ccn(C)n3)c(C)c2c1 [Compound 120] | ++++ (more than 1000-fold selectivity over MOR)
10 | 1 to 10 | > 1000 | CCc1cc(F)c2nc(N3CCN(C(=O)[C@H](C)N4CC[C@@H](F)C4)C[C@H]3C)c(-c3nc(C)no3)c(C)c2c1 (stereo in doubt) [Compound 151] | +++ (between 100- to 1000-fold selective)
11 | 1 to 10 | > 1000 | CCc1cc(F)c2nc(N3CCN(C(=O)CN(CC)CC)C[C@H]3C)c(-c3cc(C)no3)c(C)c2c1 [Compound 166] | +++ (between 100- to 1000-fold selective)
12 | 1 to 10 | 100 to 1000 | CCc1cc(F)c2nc(N3CCN(C(=O)[C@H](C)N4CCCC4)C[C@H]3C)c(-c3nc(C)no3)c(C)c2c1 [Compound 201] | +++ (between 100- to 1000-fold selective)
13 | < 1 | 100 to 1000 | CCc1cc(F)c2nc(N3CC[C@H](N[C@@H]4CCOC4)C[C@H]3C)c(-c3ccn(C)n3)c(C)c2c1 [Compound 118] | ++++ (more than 1000-fold selectivity over MOR)
14 | 10 to 100 | > 1000 | CCc1cc(F)c2nc(N3CCN(C(=O)[C@H](C)N(CC)CC)C[C@H]3C)c(-c3ccn(C)n3)c(C)c2c1 [Compound 174] | +++ (between 100- to 1000-fold selective)

Reference: US20260115185A1, “QUINOLINE DERIVATIVES WHICH ACT AS KAPPA-OPIOID RECEPTOR ANTAGONISTS” (The Scripps Research Institute, priority 2023, published 2026)
